The test system of test [1] is rat glioma C6 cells. The test is described as follows: Rat glioma C6 cell proliferation, crystal violet staining. It counts as cell-based. The note with it: 48 h; for C6 cell proliferation: relative to control; for rat glioma cell proliferation (absorbance at 595 nm, % of control): 500 μM. As for the experimental part: The cell line used was rat glioma C6 cells. The cells were cultured as previously described (Cuevas P et al. Neural Res, 2005). The cells were cultured as adherent cells in Dulbecco's modified Eagle's medium, supplemented with 7.5% (v/v) of fetal bovine serum, 10 μg/ml of streptomycin and 10 units/ml of penicillin. The tumor cells were seeded in 24-well plates at a density of 10,000 cells/well, and were incubated at 37° C. in a humidified chamber with 5% CO2. Once adhered, the cells were treated or not (controls) with 2,5-dihydroxybenzoate at 100, 200, 500 or 1000 µM and they were allowed to proliferate for 48 h. After this time the glioma cell proliferation was evaluated by means of staining the fixed cells with crystal violet. The number of cells is proportional to the amount of retained dye, which was spectrophotometrically determined by measuring the absorbance at 595 nm once the dye was extracted from the cells.
The cell line used was the C6 cell line and the experiment was carried out as described in Example 2. Once adhered, the cells were treated or not (controls) with increasing concentrations of 2,5-DHC (10, 25, 50 and 100 μM) and they were allowed to proliferate for 48 h. After this time the glioma cell proliferation was evaluated by means of staining the fixed cells with crystal violet. The number of cells is proportional to the amount of retained dye, which was determined spectrophotometrically by measuring absorbance at 595 nm once the dye was extracted from the cells.
The cell line used was the C6 cell line and the experiment was carried out as described in examples 2 and 3. Once adhered, the cells were treated or not (controls) with (5A-2HBS) (500 μM) or (2A-5HBS) (500 μM) and they were allowed to proliferate for 48 h. After this time the glioma cell proliferation was evaluated by means of staining the fixed cells with crystal violet. The number of cells is proportional to the amount of retained dye, which was determined spectrophotometrically by measuring the absorbance at 595 nm once the dye was extracted from the cells.

Test [2] relates to bFGF-induced fibrosis. The test is described as follows: bFGF-induced fibrosis around subcutaneously implanted gelatin sponges. The note with it: 100 μM in sponge with bFGF 10 μg/ml and heparin; subcutaneous; 7 days. The test is classed as in vivo, Sprague-Dawley rats. How it is done: Sterile gelatin sponges ([…]; Curaspon Dental, Clinimed Holding, Zwanenburg, The Netherlands) were subcutaneously implanted in the dorsal region of the neck in Sprague-Dawley rats after the induction of intraperitoneal anesthesia. The animals were split into two groups: group A, the sponges were moistened with 200 III of saline solution which contained 25 μg/ml of heparin and 10 μg/ml of basic FGF (bFGF); group B, the sponges were moistened in the same solution as in group A, but which solution further contained 2,5-dihydroxybenzoate (100 μM). After 7 days, the sponges and the surrounding subcutaneous fat were removed and histologically analyzed.

Test [3] addresses T1, Fibroblast Growth Factor-1 (FGF-1) (Homo sapiens, UniProt P05230).
T1 construct: host or cells: added to Balb/c 3T3 fibroblast cultures
The experiment in a line: Crystal diffraction of FGF-1:compound complexes. The conditions noted are these: electron density contoured at 1σ; acetoxyl groups conserved on binding. As for the experimental part: Based on the crystal diffraction of the FGF-1:2-acetoxy-5-hydroxybenzene sulfonic acid, FGF-1:5-acetoxy-2-hydroxybenzene sulfonic acid and FGF-1:2,5-diacetoxybenzene sulfonic acid complexes, the structures of the complexes were calculated and represented. FIGS. 13, 14 and 15, which show the surface of the dyed protein according to its electrostatic potential (light grey, negative charge; dark grey, positive charge; white, regions with no charge), show the manner in which 2-acetoxy-5-hydroxybenzene sulfonic acid, 5-acetoxy-2-hydroxybenzene sulfonic acid and 2,5-diacetoxybenzene sulfonic acid interact, respectively, with FGF-1.

Test [4] deals with T1, Fibroblast Growth Factor-1 (FGF-1). The experiment in a line: Mitogenesis induced by FGF-1 in quiescent Balb/c 3T3 fibroblast cultures. The test is classed as cell-based. How it is done:
The evaluated compounds were used in the form of potassium salt, except in the first case which used calcium salt. The experiments were carried out as described in Femandez-Tomero C et al. J Bioi Chern, 2003.

For test [5], the system named is subcutaneous gliomas (rat C6 glioma cells). The test is described as follows: Apoptosis in sections of subcutaneous gliomas (hematoxylin and eosin). The conditions noted are these: 100 mg/kg/day i.p. for 10 days; vs carrier. The test is classed as in vivo, rats. An excerpt: Tumor cells elude the programmed cell death process or apoptosis that normal cells experience. Apoptosis induction in tumor cells is one way to confront the development of a tumor. To evaluate the effect of potassium 2,5-[…] sulfonate (DABS) on tumor cell apoptosis, 6).lm thick sections of the subcutaneous gliomas described in example 4 were made. The sections were stained with hematoxylin and eosin and observed at a magnification of 313 times using immersion oil. In these conditions, cell apoptosis is shown by the existence of apoptotic bodies appearing as strongly chromogenic granules in the cell nucleus which is frequently fragmented.

The test system is the same in test [6]. The experiment in a line: Progression of established subcutaneous C6 gliomas in rats. It counts as in vivo. How it is done: Rat C6 glioma cells were cultured as previously described (Cuevas P et al. Neural Res, 2005). The C6 cells cultured to confluence in 75 cm^2 flasks were removed and implanted under the abdominal skin in anesthetized rats. The existence of a tumor in the implantation area was observed five days after the implantation of the tumor cells. Only the rats in which the existence of a tumor was observed were randomly assigned to be treated with daily intraperitoneal injections of 2,5-dihydroxybenzene sulfonate (DHBS; 100 mg/kg/day), 2,5-diacetoxybenzene sulfonate (DABS; 100 mg/kg/day) or the carrier (0.9% NaCl). After 10 days of treatment, the subcutaneous gliomas were removed and their volume was calculated according to the formula V=4/3π.(L/2).(A/2)^2 (in mm^3) where L is the larger diameter and A is the smaller diameter, both expressed in mm.

The test system of test [7] is human prostate cancer PC-3 cells. The test is described as follows: Human tumor cell proliferation, XTT viability method. The test is classed as cell-based. The note with it: 1-200 μM; 96 h. As for the experimental part:
(§1) The cell lines used were the human prostate cancer PC-3 cells and human lung cancer A549 cells. 2000 cells were seeded per well in 96-well plates and they were allowed to adhere overnight. Then the cells were treated or not (controls) with potassium 2,5-diacetoxybenzene sulfonate (DABS) (1-200 μM) and they were allowed to proliferate for 96 h. After this time, the PC-3 and A549 cell proliferation was evaluated by determining the final number of cells by means of the viability method of yellow tetrazolium salt (XTT). The data were expressed as a percentage of the control (without treatment).

The subject of test [8] is human lung cancer A549 cells. Described as above. The test is classed as cell-based. The conditions noted are these: 1-200 μM; 96 h. How it is done:
as §1

The test system of test [9] is human prostate cancer PC-3 cells. The experiment in a line: Subcutaneous PC-3 prostate cancer cell implantation model in athymic mice. The conditions noted are these: 100 mg/kg daily i.p. for 15 days, vs carrier. The test is classed as in vivo, athymic mice (Nu/Nu). How it is done:
5×10^6 human prostate cancer PC-3 cells were subcutaneously injected in male athymic mice (Nu/Nu) of 6-8 weeks of age and weighing 20-26 g. Ten days after the implantation of the tumor cells, the mice were randomly split into two groups: one of them received a daily injection of potassium 2,5-diacetoxybenzene sulfonate (DABS) by intraperitoneal route at a dose of 100 mg/kg dissolved in saline (0.9% NaCl) whereas the other group received a daily injection of carrier (saline). The treatments were administered for 15 days. The volumes of the tumors induced by the implantation of PC-3 cells were measured through the skin on alternating days using a Vernier caliper. The volume was calculated using the formula […], where D is the larger diameter in mm, d is the smaller diameter in mm and V is the volume in mm^3. At the end of treatment, the mice were sacrificed and the tumors were weighed.

T1 sequence (P05230 whole entry, species assumed): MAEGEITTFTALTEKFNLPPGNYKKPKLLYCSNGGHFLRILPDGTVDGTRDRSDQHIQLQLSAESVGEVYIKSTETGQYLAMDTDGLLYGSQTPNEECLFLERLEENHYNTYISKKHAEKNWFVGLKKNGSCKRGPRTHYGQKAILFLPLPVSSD

For the compound `O=C(O)C=Cc1cc(O)ccc1O` [2,5-DHC, 3-(2,5-dihydroxyphenyl)-2-propenoic acid], the C6 cell proliferation entry in [1] (50 µM) is on record as “reduced the C6 cell proliferation to less than half”; in [1] (100 μM), “reduced to one tenth”.
For the compound `O=C([O-])c1cc(O)ccc1O.[K+]` [2,5-dihydroxybenzoate, potassium 2,5-dihydroxybenzoate], the “bFGF-induced fibrosis (fibroblasts in septa of connective tissue of adipose tissue)” value in test [2] is listed as “reduces bFGF-induced fibrosis”. Also, the “rat glioma C6 cell proliferation (absorbance at 595 nm)” value in test [1] (100, 200, 500 or 1000 μM) is “inhibited rat glioma C6 cell proliferation in a concentration-dependent manner”. In test [1] (at 500 and 1000 μM, vs control), the “statistical significance of the inhibition of C6 cell proliferation” value is “statistically significant”.
Regarding `CC(=O)Oc1ccc(O)cc1S(=O)(=O)[O-].[K+]` [2A-5HBS, potassium 2-acetoxy-5-hydroxybenzene sulfonate], in [3], the “binding site on FGF-1 in the co-crystal” value is “occupy a site that is very close to the one that has been described occupied by 2,5-dihydroxybenzene sulfonic acid”. Further, the “rat glioma cell proliferation (absorbance at 595 nm, % of control)” value in [1] is given as “caused the inhibition of rat glioma cell proliferation”.
As to `CC(=O)Oc1ccc(O)c(S(=O)(=O)[O-])c1.[K+]` [5A-2HBS, potassium 5-acetoxy-2-hydroxybenzene sulfonate], the “mitogenesis induced by FGF-1” value in test [4] is “inhibition of mitogenesis induced by FGF-1”. The “binding site on FGF-1 in the co-crystal” value in test [3] is given as “occupy a site that is very close to the one that has been described occupied by 2,5-dihydroxybenzene sulfonic acid”. Besides, in test [1], the “rat glioma cell proliferation (absorbance at 595 nm, % of control)” value was “caused the inhibition of rat glioma cell proliferation”.
Regarding `CC(=O)Oc1ccc(OC(C)=O)c(S(=O)(=O)[O-])c1.[K+]` [DABS, potassium 2,5-diacetoxybenzene sulfonate], the “mitogenesis induced by FGF-1” value in test [4] was “inhibition of mitogenesis induced by FGF-1”. The “tumor cells in apoptosis in glioma sections” value in test [5] is “a large number of tumor cells in apoptosis can be observed”. For the same compound, the “probability of being tumor-free (χ2 test)” value in test [6] (DABS group vs DHBS group, 100 mg/kg/day each) is reported as “greater probability of being tumor-free”. In test [6] (i.p. 100 mg/kg/day for 10 days, all rats had established tumors before treatment), the “rats tumor-free when treatment ended” value is 4 rats. For the same compound, the “PC-3 cell proliferation (number of viable cells, % of control)” value in test [7] is on record as “significant inhibition”. Also, the “A549 cell proliferation (number of viable cells, % of control)” value in test [8] was “significant inhibition”. Besides, the “tumor growth (tumor volume measured through the skin)” value in [9] (started 10 days after implantation) is reported as “significantly reduced the human prostate cell tumor growth”. For the same compound, the “weight of the extracted tumor when treatment ended” value in test [9] is given as “significant reduction of the weight of the extracted tumor”. Moreover, the “binding site on FGF-1 in the co-crystal” value in test [3] is listed as “occupy a site that is very close to the one that has been described occupied by 2,5-dihydroxybenzene sulfonic acid”.
`O=S(=O)([O-])c1cc(O)ccc1O.[K+]` [DHBS, potassium 2,5-dihydroxybenzene sulfonate, reference compound]: the “mitogenesis induced by FGF-1” value in test [4] is recorded as “inhibition of the mitogenesis induced by fibroblast growth factor-1”. For the same compound, in test [6] (i.p. 100 mg/kg/day for 10 days, started on day 5 after implantation, vs carrier), the “average size (volume) of the subcutaneous gliomas” value is listed as “less than that of the rats treated with carrier”.
On to “calcium 2-acetoxy-5-hydroxybenzene sulfonate”, for which the “mitogenesis induced by FGF-1” value in test [4] was “inhibition of mitogenesis induced by FGF-1”.

For the origin of these results see US10278940B2, “Use of 2,5-dihydroxybenzene compounds and derivatives for the treatment of skin cancer” (AmDerma Pharmaceuticals, LLC, priority 2006, dated 2019).
